Results: US6613307B1, “Aerosol formulations of salmeterol xinafoate” (SmithKline Beecham Corporation, priority 1998, dated 2003)

How the values were obtained:
Format in all cases: physicochemical
[1] = Reproducibility: particle size and distribution by laser diffraction (Malvern Mastersizer), Example 11; details: 300 bar, 35° C., acetone 0.6% w/v; for Mean Particle Size: two different days
Procedure: Two different solutions of salmeterol xinafoate in acetone (0.6% w/v) were made and each solution was co-introduced with CO2 via a coaxial nozzle into the particle formation vessel using the apparatus described on two different days to give samples A and B. The operating conditions were 300 bar and 35° C., with flow rates of 0.2 ml/min for the salmeterol solution and 6 ml/min for the supercritical CO2. The crystallised salmeterol xinafoate provided from each solution was examined for particle size and size distribution.

[2] = Particle size analysis by laser diffraction (Malvern Mastersizer E), Example 3
Procedure: A solution of salmeterol xinafoate in acetone (0.6% w/v) was co-introduced with CO2 at 200 bar and 55° C. via a coaxial nozzle into the particle formation vessel using the apparatus described and shown in FIG. 1. A series of products was obtained by changing the flow rate ratio of salmeterol xinafoate solution/supercritical CO2, where the flow ratio is defined as: [formula]
The flow ratio was changed between 0.01 and 0.07, with a flow rate of 9 ml/min for the supercritical CO2.
The resultant dry, easily handlable products without significant static charge were examined by scanning electron microscopy (SEM) and by laser diffraction (Malvern Mastersizer E) for particle size analysis (see FIGS. 12-15).
The uniformity index is defined as: [formula]

[3] = Relative static charge: drug remaining coated to vial walls after rolling; details: after rolling drug in vial for 5 minutes
Procedure: Using samples prepared as described in Example 1, a simple test was devised to determine their relative static charge based on the quantity of drug remaining coated to the walls of a vial after rolling a predetermined quantity of drug in the vial for 5 minutes. The greater the drug remaining on the vial, the higher the relative static charge associated with the drug substance.

[4] = Dynamic bulk density (fluidisability) of salmeterol xinafoate powders; details: powder
Procedure: The dynamic bulk density (W) is indicative of a substance's fluidisability and is defined as: [formula]
where P is the packed bulk density (g.cm^−3), A is the aerated bulk density (g.cm^−3) and C is the compressibility (%) where C is calculated by the equation: [formula]
Conventionally crystallised salmeterol xinafoate, both before and after micronisation, was compared against salmeterol xinafoate made by the supercritical fluid method described herein. A solution of salmeterol xinafoate in acetone (0.63% w/v) was co-introduced with CO2 at 300 bar and 45° C. via a coaxial nozzle into the particle formation vessel using the apparatus described and shown in FIG. 1 to give sample 1. A solution of salmeterol xinafoate in acetone (0.50% w/v) was cointroduced with CO2 at 100 bar and 55° C. via a coaxial nozzle into the particle formation vessel using the apparatus described and shown in FIG. 1 to give sample 2. In each case, the solution flow rate was 0.4 ml/min and supercritical CO2 was co-introduced into the particle formation vessel at a flow rate of 9 ml/min.
The dynamic bulk densities are shown below in Table 2: […]

[5] = Scanning electron microscopy of particles; details: SEM; needle shaped particles from isopropanol (0.2% w/v), 150 bar, 60° C.
Procedure: In another experiment, a solution of salmeterol xinafoate in isopropanol (0.2% w/v) was co-introduced with CO2 at 150 bar and 60° C. via a coaxial nozzle into the particle formation vessel using the apparatus described and shown in FIG. 1. The dry, easily handlable product without significant static charge was examined by SEM (see FIG. 16) and found to be composed of needle shaped particles with a maximum particle dimension of up to 300 microns. Thus by controlling and changing the working conditions of the particle formation process, salmeterol xinafoate products composed of particles with different particle sizes and size distributions were produced.

| Structure (SMILES) | % < 5 μm [2] | % < 10 μm [2] | Mean Particle Size [2] | Uniformity index [2] | Dynamic Bulk Density W [4] | also measured |
| --- | --- | --- | --- | --- | --- | --- |
| OCc1cc(C(O)CNCCCCCCOCCCCc2ccccc2)ccc1O (single isomer, unassigned) [Sample A, salmeterol xinafoate] | – | – | – | – | – | % < 5 microns [1]: 31.6%; % < 10 microns [1]: 67.8%; Uniformity index [1]: 9; Mean Particle Size [1]: 7.2 Microns |
| OCc1cc(C(O)CNCCCCCCOCCCCc2ccccc2)ccc1O (single isomer, unassigned) [Sample B, salmeterol xinafoate] | – | – | – | – | – | % < 5 microns [1]: 28.3%; % < 10 microns [1]: 64.5%; Uniformity index [1]: 9; Mean Particle Size [1]: 7.7 Microns |
| OCc1cc(C(O)CNCCCCCCOCCCCc2ccccc2)ccc1O (stereo not shown) [Conventionally crystallised salmeterol xinafoate (micronised] [reference compound] | >90% | >95% | 1-3 μm | 13.1 | 0.137 g · cm^−3 | % Drug Retaining on Vial [3]: 7.0% |
| OCc1cc(C(O)CNCCCCCCOCCCCc2ccccc2)ccc1O (stereo not shown) [SCF salmeterol xinafoate (sample 1), salmeterol xinafoate] | 66.0% | 94.5% | 3.85 μm | 10.2 | 0.033 g · cm^−3 | % Drug Retaining on Vial ([3]; sample 1): 2.5% |
| OCc1cc(C(O)CNCCCCCCOCCCCc2ccccc2)ccc1O (stereo not shown) [SCF salmeterol xinafoate (sample 2), salmeterol xinafoate] | 5.7% | 16.1% | 18.84 μm | 19.2 | 0.059 g · cm^−3 | % Drug Retaining on Vial ([3]; sample 2): 5.7% |
| OCc1cc(C(O)CNCCCCCCOCCCCc2ccccc2)ccc1O (stereo not shown) [conventionally crystallised salmeterol xinafoate (non-micron] [reference compound] | – | – | – | – | 0.312 g · cm^−3 | – |
| OCc1cc(C(O)CNCCCCCCOCCCCc2ccccc2)ccc1O (stereo not drawn) [salmeterol xinafoate, 4-hydroxy-α^1-[[[6-(4-phenylbutoxy)hexyl]amino]methyl]-1,3-benzenedimethanol (salmeterol) 1-hydroxy-2-naphthalenecarboxylate (xinafoate)] | – | – | – | – | – | maximum particle dimension [5]: up to 300 microns |
